Measured values taken from the NIST ThermoML archive (doi:10.1016/j.fluid.2012.08.003).
Several values for one entry are separate records, joined by “and”; a condition that tells them apart may be missing. Equal values may be shown once. Numbers after ± are expanded uncertainties.

Settings: Liquid, Transpiration method

CCCCCCCOC=O [heptyl methanoate]
Settings | vapor or sublimation pressure
276.1 K | 0.0215 ± 0.0011 kPa
277.6 K | 0.02468 ± 0.0012 kPa
278.6 K | 0.02656 ± 0.0013 kPa
280.4 K | 0.03187 ± 0.0016 kPa
283.3 K | 0.04168 ± 0.0021 kPa
288.3 K | 0.06125 ± 0.0031 kPa
293.2 K | 0.0889 ± 0.0044 kPa and 0.08971 ± 0.0045 kPa
293.3 K | 0.08835 ± 0.0044 kPa
298.3 K | 0.13 ± 0.0065 kPa and 0.1304 ± 0.0065 kPa
303.3 K | 0.183 ± 0.0092 kPa
308.2 K | 0.257 ± 0.013 kPa
311 K | 0.3176 ± 0.016 kPa
313.3 K | 0.3549 ± 0.018 kPa
316.4 K | 0.4359 ± 0.022 kPa

CCCCCCOC=O [hexyl methanoate]
Settings | vapor or sublimation pressure
275.4 K | 0.07241 ± 0.0036 kPa
278.5 K | 0.09094 ± 0.0046 kPa
283.3 K | 0.1319 ± 0.0066 kPa
288.2 K | 0.1935 ± 0.0097 kPa
293.3 K | 0.2694 ± 0.014 kPa
293.4 K | 0.2753 ± 0.014 kPa
298.4 K | 0.4056 ± 0.02 kPa and 0.4085 ± 0.02 kPa
303.2 K | 0.5577 ± 0.028 kPa
303.3 K | 0.5448 ± 0.027 kPa
308.3 K | 0.7473 ± 0.037 kPa and 0.7588 ± 0.038 kPa
313.4 K | 1.016 ± 0.051 kPa and 1.013 ± 0.051 kPa

CCCCCCOC(=O)CC [hexyl propanoate]
Settings | vapor or sublimation pressure
278.3 K | 0.01764 ± 0.00088 kPa
280.7 K | 0.0221 ± 0.0011 kPa
283.4 K | 0.02827 ± 0.0014 kPa
285.8 K | 0.03417 ± 0.0017 kPa
288.2 K | 0.04354 ± 0.0022 kPa
298.4 K | 0.09932 ± 0.005 kPa
303.2 K | 0.1369 ± 0.0069 kPa and 0.1363 ± 0.0068 kPa
308.2 K | 0.2024 ± 0.01 kPa
313.3 K | 0.2793 ± 0.014 kPa
318.5 K | 0.3993 ± 0.02 kPa
323.4 K | 0.5422 ± 0.027 kPa
326.4 K | 0.6804 ± 0.034 kPa
328.4 K | 0.7646 ± 0.038 kPa
330.6 K | 0.8602 ± 0.043 kPa
333.3 K | 0.9961 ± 0.05 kPa

CCCCCCCCOC=O [octyl methanoate]
Settings | vapor or sublimation pressure
283.3 K | 0.01298 ± 0.0026 kPa
285.7 K | 0.01585 ± 0.0032 kPa
288.2 K | 0.01973 ± 0.004 kPa
290.8 K | 0.02392 ± 0.0049 kPa
293.3 K | 0.02964 ± 0.006 kPa
298.4 K | 0.04462 ± 0.0091 kPa
303.2 K | 0.0622 ± 0.013 kPa and 0.06388 ± 0.013 kPa
308.2 K | 0.09465 ± 0.019 kPa
313.5 K | 0.1368 ± 0.028 kPa
318.5 K | 0.1894 ± 0.038 kPa
323.5 K | 0.2656 ± 0.054 kPa
328.4 K | 0.3665 ± 0.074 kPa
331.3 K | 0.4318 ± 0.088 kPa
333.4 K | 0.4943 ± 0.1 kPa
335.3 K | 0.5488 ± 0.11 kPa
338.3 K | 0.6635 ± 0.13 kPa

CCCCCCCCOC(=O)CC [octyl propanoate]
Settings | vapor or sublimation pressure [kPa]
293.3 K | 0.00465 ± 0.00023
295.7 K | 0.00575 ± 0.00029
298.4 K | 0.00732 ± 0.00037
300.3 K | 0.00883 ± 0.00044
303.3 K | 0.01129 ± 0.00057
308.3 K | 0.0173 ± 0.00087
313.4 K | 0.02656 ± 0.0013
318.5 K | 0.0387 ± 0.0019
323.4 K | 0.0541 ± 0.0027
328.5 K | 0.08043 ± 0.004
333.3 K | 0.1125 ± 0.0056
338.3 K | 0.155 ± 0.0077
340.3 K | 0.176 ± 0.0088
343 K | 0.2098 ± 0.01
346.4 K | 0.2681 ± 0.013
348.4 K | 0.2952 ± 0.015

CCCCCOC(C)=O [pentyl ethanoate]
Settings | vapor or sublimation pressure
274.2 K | 0.08539 ± 0.0043 kPa
274.3 K | 0.08709 ± 0.0044 kPa
275.6 K | 0.0953 ± 0.0048 kPa and 0.09555 ± 0.0048 kPa
278.2 K | 0.1145 ± 0.0057 kPa
280.8 K | 0.1396 ± 0.007 kPa
283.2 K | 0.1683 ± 0.0084 kPa
288.2 K | 0.2413 ± 0.012 kPa
293.3 K | 0.343 ± 0.017 kPa
298.4 K | 0.4754 ± 0.024 kPa
303.3 K | 0.658 ± 0.033 kPa
306.7 K | 0.807 ± 0.04 kPa
308.2 K | 0.9035 ± 0.045 kPa
310.6 K | 1.031 ± 0.052 kPa
313.4 K | 1.219 ± 0.061 kPa

CCCCCOC=O [pentyl methanoate]
Settings | vapor or sublimation pressure
274.2 K | 0.2283 ± 0.011 kPa
274.3 K | 0.2293 ± 0.011 kPa
275.7 K | 0.2518 ± 0.013 kPa
278.3 K | 0.3006 ± 0.015 kPa and 0.3046 ± 0.015 kPa
281 K | 0.37 ± 0.019 kPa and 0.3692 ± 0.018 kPa
283.2 K | 0.4349 ± 0.022 kPa
288.2 K | 0.61 ± 0.031 kPa
293.3 K | 0.8452 ± 0.042 kPa
298.4 K | 1.161 ± 0.058 kPa
303.3 K | 1.571 ± 0.079 kPa
305.6 K | 1.779 ± 0.089 kPa
308 K | 2.045 ± 0.1 kPa
310.7 K | 2.374 ± 0.12 kPa
313.3 K | 2.757 ± 0.14 kPa

CCCCCOC(=O)CC [pentyl propanoate]
Settings | vapor or sublimation pressure [kPa]
274.1 K | 0.02995 ± 0.0015
275.5 K | 0.03342 ± 0.0017
278.3 K | 0.04139 ± 0.0021
280.9 K | 0.05087 ± 0.0026
283.4 K | 0.06315 ± 0.0032
288.3 K | 0.09403 ± 0.0047
293.3 K | 0.1374 ± 0.0069
298.4 K | 0.1984 ± 0.0099
303.3 K | 0.2789 ± 0.014
308.2 K | 0.3925 ± 0.02
313.4 K | 0.5328 ± 0.027
318.5 K | 0.7195 ± 0.036
320.7 K | 0.8423 ± 0.042
323.4 K | 0.9568 ± 0.048
325.6 K | 1.098 ± 0.055
328.4 K | 1.293 ± 0.065
